Assays:
[1] = system: J774.A1 murine macrophage cells; test: MTT cell viability assay on macrophages; type: cell-based
Method: (§1) The J774.A1 murine macrophage cells were grown in Roswell Park Memorial Institute (RPMI) 1640 medium in the presence of 10% (v/v) FBS and 100 U/ml penicillin−100 µg/ml streptomycin (Gibco, Invitrogen, Thermo Fisher Scientific, NY, USA) at 37°C (humidified) and 5% CO2. […] Madin–Darby canine kidney (MDCK) cells were obtained from the National Centre for Cell Science, Pune, India. MDCK cells were derived from the kidney tissue of an adult female Cocker Spaniel. These were grown in Dulbecco’s modified Eagle’s minimal essential medium (DMEM) in the presence of 10% (v/v) FBS and 100 U/ml penicillin−100 µg/ml streptomycin (Gibco, Invitrogen, Thermo Fisher Scientific, NY, USA) at 37°C (humidified) and 5% CO2 ([Ayana et al., 2018]; [Shivappagowdar et al., 2021]).
(§2) All the compounds were dissolved in dimethyl sulfoxide (DMSO) (Sigma-Aldrich) for 1 mM stock solution and were screened against promastigotes at a concentration of 5 µM. For Glycosides (Gly) 2, 6, and 8, a range of concentrations starting from 100 nM to 100 µM were screened against promastigote forms of parasite and mammalian cells. Parasites (AG83 and PKDL strain) treated with amphotericin B (3 µg/ml) (Sigma-Aldrich) were maintained as the positive control.
(§3) To evaluate the cytotoxic effects of 12 compounds on L. donovani promastigotes, LDH assay was performed. This assay involves the reduction of tetrazolium salts to formazan during LDH-mediated catalysis of lactate to pyruvate, which can be detected at […]. Rate of formazan formation is proportional to the release of LDH through damaged cell membranes. For the preliminary screening, the promastigotes were incubated with 12 compounds at a single concentration of 5 µM for a period of 72 h, and the released LDH was estimated ( Supplementary Figure S1A ). Amphotericin B-treated promastigotes were taken as the positive control. […] Having observed the antileishmanial effect of Gly2 on growth and proliferation of promastigotes, we next investigated the cytotoxicity of Gly2 on mammalian cells (MDCK, J774.1A) through MTT (3-(4, 5-dimethylthiazolyl-2)-2, 5-diphenyltetrazolium bromide) cell viability assay ( Supplementary Figures S1B, C ). […] The CC50 values of Gly2 analog was in the micromolar range. The selectivity index (SI) for the compound was calculated as the ratio between cytotoxicity (CC50) and activity (IC50) against promastigotes ( Table 1 ).

[2] = system: L. donovani promastigotes (AG83 strain); test: LDH cytotoxicity assay on promastigotes, AG83 strain; type: cell-based, Leishmania donovani
Method: Promastigote forms of L. donovani (MHOM/IN/1983/AG83) were cultured at 26°C in M199 (GIBCO, India), pH 7.4, supplemented with 10% (v/v) inactivated fetal bovine serum (FBS, GIBCO, India) and 0.02 mg/ml gentamycin (Life Technologies, USA). The clinical isolate of PKDL, BS12, was obtained as a gift from Prof. Mitali Chatterjee [Department of Pharmacology, Institute of Postgraduate Medical Education and Research (IPGMER), Kolkata, India]. BS12 was routinely cultured at 22°C in M199 (GIBCO, India) with 100 U/ml penicillin-streptomycin (Gibco, Invitrogen, Thermo Fisher Scientific, NY, USA), 8 μM hemin (4 mM stock made in 50% triethanolamine) (Sigma, USA), 25 mM 4-(2-hydroxyethyl)-1-piperazineethanesulfonic acid (HEPES), supplemented with 10% heat-inactivated FBS (GIBCO, India). Cultures were maintained between 10^6 and 10^7 cells/ml for continuous exponential growth. In addition, 1 × 10^6 cells/ml parasite count was constantly maintained for all the experiments ([Ramu et al., 2017]).
as §2
AG83 strain of L. donovani were exposed to various Gly compound concentrations (100 nM–100 µM) in a 96-well microtiter plate (100 µl/well volume) and were incubated for 72 h at 26°C. Finally, lactate dehydrogenase (LDH) cytotoxic assay was performed as per standard protocol (CytoTox 96 Non-Radioactive Cytotoxicity Assay-Promega, USA). The percent cytotoxicity of test compounds was calculated by normalizing with amphotericin B as 100%. Further percentage growth inhibition was calculated using the formula:
% Growth Inhibition = Gly treated LDH activity- Spontaneous LDH activity
/Maximum LDH activity- Spontaneous LDH activity * 100
As per the formula, the spontaneous LDH Activity = activity of the untreated cells and the maximum LDH activity = activity of the amphotericin B-treated cells. IC50 value for Gly2, 6, and 8 treated was generated for AG83 and PKDL strain of L. donovani using sigmoidal dose–response model with nonlinear regression tool ([Ramu et al., 2017]).

[3] = system: L. donovani intracellular amastigotes in J774.A1 macrophages; test: Intramacrophage amastigote assay (Giemsa staining, J774.A1); type: cell-based, Leishmania donovani; conditions: treated at IC50 concentration, 24 h; untreated control ~5
Method: For evaluating the efficacy of compounds against intramacrophage amastigotes, Giemsa staining (Sigma-Aldrich) was performed. J774.A1 murine macrophage cells were plated at a cell density of 5 × 10^5 cell/well in a 6-well flat bottom plate. The cells were infected with late-stage L. donovani, rich in promastigotes at a ratio of 10:1. After 6 h, uninfected promastigotes were washed off with PBS.

[4] = MTT cell viability assay on macrophages; type: cell-based, murine; conditions: mouse, J774.A1 macrophage cells; Table 1; macrophages
Method: as §1, §2, §3

[5] = system: L. donovani promastigotes; test: Hoechst/PI live/dead dual staining of promastigotes; type: cell-based, Leishmania donovani; conditions: 5 µM, 72 h
Method: The toxic effect of the three compounds, Gly2, 6, and 8 on promastigotes at 5 µM >IC50 concentration was measured by Hoechst and propidium iodide (PI) double staining. […], parasites were harvested, washed in 0.01 M PBS (pH = 7.4), and stained with Hoechst 33258 (1 µg/ml) (Life Technologies, USA) and PI (5 µg/ml) (Life Technologies, USA) followed by incubation for a period of 20 min at 37°C. Subsequently, cells were washed for excessive stain removal and visualized using fluorescence microscope with 510–560-nm filter block for PI red fluorescence and excitation/emission spectra at 361/497 for Hoechst ([López-Arencibia et al., 2015]).

[6] = Table 1, activity against promastigotes
[7] = Leishmania donovani, AG83 promastigotes, LDH assay 72 h, sigmoidal curve, normalised to amphotericin B 3 µg/ml as 100%
[8] = Leishmania donovani, Table 1, activity against promastigotes

Question: What does the source list for `CCCCCCOC1O[C@H](CO)[C@@H](O)[C@H](O)[C@H]1O` (stereo partly shown) [Gly3]?
Answer: CC50 [1]: 1680 µM; IC50 [2, 6]: 12.7 µM

Question: For `CCCCCCOC1O[C@H](COC(C)=O)[C@@H](OC(C)=O)[C@H](OC(C)=O)[C@H]1OC(C)=O` (stereo partly shown) [Gly5], which CC50 [1] is on record?
Answer: Its CC50 is 159 µM.

Question: What about the IC50 [2, 6] of the same compound?
Answer: Its IC50 is 5.97 µM.

Question: With `CC(=O)OC[C@H]1OC(OC(C)C)[C@H](OC(C)=O)[C@@H](OC(C)=O)[C@@H]1OC(C)=O` (stereo partly shown) [Gly9] as the compound, how does the CC50 [1] read?
Answer: Its CC50 is 256 µM.

Question: What about the IC50 [2, 6] of the same compound?
Answer: Its IC50 is 36 µM.

Question: With `CC(=O)OC[C@H]1OC(OCCC(C)C)[C@H](OC(C)=O)[C@@H](OC(C)=O)[C@@H]1OC(C)=O` (stereo partly shown) [Gly6] as the compound, how does the “number of amastigotes per infected macrophage” value [3] read?
Answer: The value was ~ 3 amastigotes/macrophages.

Question: And the CC50 [4]?
Answer: Its CC50 is 1030 µM.

Question: What about the IC50 [2, 7] of the same compound?
Answer: The IC50 was 2.94 µM.

Question: And the IC50 [2, 8]?
Answer: Its IC50 is 3.4 µM.

Question: And the “dead parasites (PI positive)” value [5]?
Answer: The value was ~ 33.72%.

Question: With `CCCOC1O[C@H](COC(C)=O)[C@@H](OC(C)=O)[C@H](OC(C)=O)[C@H]1NC(C)=O` (stereo partly shown) [Gly10] as the compound, how does the CC50 [1] read?
Answer: Its CC50 is 239 µM.

Question: And the IC50 [2, 6]?
Answer: The IC50 was 25.2 µM.

Question: Which results are given for `CCOC1O[C@H](CO)[C@@H](O)[C@H](O)[C@H]1NC(C)=O` (stereo partly drawn) [Gly1, ethyl glycoside N-Acetyl-D-glucosamine]?
Answer: CC50 [1]: 248 µM; IC50 [2, 6]: 65 µM

Question: For `CCOC1O[C@H](COC(C)=O)[C@@H](OC(C)=O)[C@H](OC(C)=O)[C@H]1OC(C)=O` (stereo partly shown) [Gly7], which CC50 [1] is on record?
Answer: Its CC50 is 299 µM.

Question: What about the IC50 [2, 6] of the same compound?
Answer: The IC50 was 77 µM.

Question: Which results are given for `CCCCOC1O[C@H](COC(C)=O)[C@@H](OC(C)=O)[C@H](OC(C)=O)[C@H]1OC(C)=O` (stereo partly shown) [Gly4]?
Answer: CC50 [1]: 167 µM; IC50 [2, 6]: 4.6 µM

Question: For `CCCOC1O[C@H](COC(C)=O)[C@@H](OC(C)=O)[C@H](OC(C)=O)[C@H]1OC(C)=O` (stereo partly drawn) [Gly8, (2R,3R,4S,5R)-2-(acetoxymethyl)-6-propoxytetrahydro-2H-pyran-3,4,5-triyl triacetate], which “number of amastigotes per infected macrophage” value [3] is on record?
Answer: The value was roughly 2 amastigotes/macrophages.

Question: What about the CC50 [4] of the same compound?
Answer: Its CC50 is 959 µM.

Question: What about the IC50 [2, 7] of the same compound?
Answer: Its IC50 is 1.61 µM.

Question: And the IC50 [2, 8]?
Answer: The IC50 was 1.6 µM.

Question: And the “dead parasites (PI positive)” value [5]?
Answer: Its value is 75.47%.

Question: Which CC50 [1] does the source give for `CCCCO[C@H]1O[C@H](COC(C)=O)[C@@H](OC(C)=O)[C@H](OC(C)=O)[C@H]1NC(C)=O` [Gly12] here?
Answer: Its CC50 is 279 µM.

Question: And the IC50 [2, 6]?
Answer: Its IC50 is 95 µM.

Question: For `CC(=O)N[C@H]1[C@@H](OCCC(C)C)O[C@H](COC(C)=O)[C@@H](OC(C)=O)[C@@H]1OC(C)=O` [Gly11], which CC50 [1] is on record?
Answer: The CC50 was 179 µM.

Question: What about the IC50 [2, 6] of the same compound?
Answer: The IC50 was 43 µM.

Reference: PMC9115111, “Metalloprotease Gp63-Targeting Novel Glycoside Exhibits Potential Antileishmanial Activity” (Frontiers in Cellular and Infection Microbiology, 2022)
